Test results reported in patent EP2974714B1, “USE OF DERIVATIVES WITH C-O-P BONDS IN PATIENTS WITH RENAL FAILURE” (LABORATORIS SANIFIT, S.L., priority 2013, dated 2014).

Columns and labels:
[1] = system: tissue calcification in an animal model of chronic renal impairment (adenine); experiment: Adenine model, bolus-type s.c. administration; format: in vivo, male Wistar rats; details: s.c. bolus 3, 10 and 30 mg/kg, 28 days, adenine uraemic rats
Procedure: Experimental: CKD was induced in 4 groups (n=12) of male Wistar rats by oral (p.o.) treatment with adenine (600 mg/kg/day) daily for 10 days. After treatment with adenine, the rats received alpha-calcidol at a dose of 300 ng/kg (3x/week, p.o.) until day 28. From day 0 until sacrifice (day 28), the animals were treated with a 2 ml/kg s.c. bolus of 0, 3, 10 and 30 mg/kg IP6. At each treatment, 3 additional animals were included to evaluate the […] for IP6. After 28 days the aorta, heart and right kidney were collected, and the tissue calcium content determined.

[2] = Administration of IP6 via the dialysis system (dialysability, calcium chelation in blood); format: in vitro ADME, human
Procedure: Experimental: 1 litre of human blood obtained from patients undergoing therapeutic phlebotomy was introduced into a recipient forming a closed dialysis circuit to simulate a real dialysis. Two experiments were performed (administration pre- and post-dialyser, both in bypass and dialysis mode), administering IP6 to human blood for 20 minutes when outside the recipient (which simulated the animal or human body) and circulating via the dialysis circuit. The recipient containing 1 litre of whole blood at a controlled temperature of 37°C is connected to the dialysis apparatus to form a closed circuit. The dialysis apparatus will be connected for 1 hour (dialysis fluid flow of 500 ml/min and blood flow of 350 ml/min). Blood samples are collected at different times to determine the IP6 and ionic calcium levels.

[3] = system: tissue calcification in uraemic animals; experiment: Adenine model, non-bolus-type intravascular administration; format: in vivo, male Wistar rats
Procedure: Experimental: CKD was induced in 2 groups (n=12) of male Wistar rats by oral (p.o.) treatment with adenine (600 mg/kg/day) daily for 10 days. After treatment with adenine, the rats received alpha-calcidol at a dose of 300 ng/kg (3x/week, p.o.) until day 28. From day 0 until sacrifice (day 28), the animals were treated with an intravascular infusion of 50 mg/kg IP6 or saline for 4 hours. After 28 days the aorta and heart were collected, and the tissue calcium content determined.

[4] = Calcium chelation by IP6 in vitro (calcium-selective electrode); format: physicochemical; details: 2.5 mM calcium in NaCl 0.15 M, pH 7.40
Procedure: Experimental: a 2.5 mM of calcium in NaCl 0.15 M, pH 7.40, was pipetted with increasing concentrations of IP6. The amount of free ionic calcium was measured potentiometrically using a calcium-selective electrode and a potentiometer.

[5] = PK profile of IP6 s.c. in rats with normal and diminished kidney function; format: in vivo, Wistar rats
Procedure: Experimental: a single s.c. dose (10 mg/kg) was administered to rats with normal kidney function. Plasma samples were obtained at different timepoints up to 60 minutes. A different group of Wistar rats received oral treatment with adenine 600 mg/kg (p.o.) for 10 days to induce renal impairment. Alpha-calcidol (300 ng/kg) was administered on days 11 and 13 and plasma samples were collected at different timepoints up to 60 minutes on day 14. The plasma IP6 concentrations were quantified for both groups.

[6] = HAP crystallisation induction period (synergy with other treatments); format: physicochemical
Procedure: Experimental: hydroxyapatite (HAP) was crystallised by mixing appropriate concentrations of calcium and phosphate at pH 7.4. The effect of cinacalcet and sevelamer was simulated by suitably modifying the calcium and phosphate concentrations. The induction period (time required for HAP to begin to crystallise) was recorded as the analytical signal.

[7] = system: progression of vitamin D-induced vascular calcification; experiment: Progression of vitamin D-induced calcification (100,000 IU/kg x 3), rat model for 2 weeks; format: in vivo, SD rats; details: highest dose (60 mg/kg s.c.), days 5 to 14
Procedure: Experimental: 48 SD rats were treated x3 with vitamin D (s.c. 100,000 IU/kg) to induce tissue calcification. Calcification was allowed to progress for 5 days, and treatment with 0, 10 or 60 mg/kg IP6 s.c. was administered from day 5 until day 14. Calcification of the kidneys and heart was evaluated.

[8] = In vitro affinity (adsorption) of IP6 for hydroxyapatite; format: binding; details: for maximum adsorption of IP6 on the HAP surface: 7.6 µM IP6 for 8 hours
Procedure: […] The total quantity of IP6 bound to the surface of the target (HAP) was quantified.
To characterise the behaviour of IP6 binding, the EC50 and Emax for the adsorption thereof on HAP were calculated. This was performed using a non-linear regression model (Log[agonist] vs. response - slope variable; GraphPad Prism software).

cardiovascular function = experiment: Cardiovascular function after bolus-type intravenous administration in conscious dogs by telemetry; format: in vivo
Procedure: Experimental: 4 male dogs, 2 per dose, were injected with 10, 15 and 30 mg/kg. Two washout days were introduced between the different doses. The ECGs were recorded telemetrically. Blood ionic calcium concentrations were determined on different days to the ECG measurements.

[9] = PK profile of IP6 by 4 h intravenous infusion in normal and uraemic rats; format: in vivo, Wistar rats
Procedure: Experimental: Wistar rats with normal kidney function were treated daily with a dose of 10 or 50 mg/kg IP6 by intravenous infusion over 4 h. Plasma samples were obtained at different timepoints up to 4 hours on day 0. The animals were then treated orally with 600 mg/kg (p.o.) adenine for 10 days to induce renal impairment. The animals were treated with alpha-calcidol (300 ng/kg) on days 11 and 13 and plasma samples were collected at different timepoints up to 4 hours on day 14. The plasma IP6 levels were quantified for both groups.

[10] = intravascular infusion of 50 mg/kg for 4 hours, 28 days, adenine uraemic rats
[11] = normal Wistar rats, single s.c. dose 10 mg/kg
[12] = uraemic rats (adenine), s.c. 10 mg/kg
[13] = uraemic rats, 10 mg/kg i.v. infusion over 4 h
[14] = uraemic rats, 50 mg/kg i.v. infusion over 4 h

For `O=P(O)(O)O[C@H]1[C@H](OP(=O)(O)O)[C@@H](OP(=O)(O)O)[C@H](OP(=O)(O)O)[C@@H](OP(=O)(O)O)[C@H]1OP(=O)(O)O` [IP6, inositol hexaphosphate], the “calcification inhibition (aorta, heart, right kidney)” value [1] was “no evidence of calcification inhibition”, the “loss of IP6 via the dialysis membrane” value ([2]; administration via the dialysis line for 20 minutes, 1 litre human blood, 37°C) was “not lost via the dialysis membrane” and the “effect on free calcium in blood” value ([2]; apparatus in bypass mode) was “chelates (sequesters) free calcium”. The “effect on ionic calcium levels in blood” value ([2]; apparatus in dialysis mode) was “ionic calcium levels are restored”, the “reduction of plasma IP6 levels by the end of the experiment” value ([3]; due to high metabolic rate, 50 mg/kg infusion, uraemic rats) was 90% and the “reduction in average calcification in the aorta” value [3, 10] was 80%. The “reduction in average calcification in the heart” value [3, 10] was 85%, the “IP6 concentration above which ionic calcium chelation is significant” value [4] was “above 379 µM” and the “IP6 concentration at which chelation saturates” value [4] was 3788 µM. For the same compound, the EC50 ([4]; read-out: EC50 of ionic calcium chelation) was 539000 nM, the “duration of measurable levels” value [5, 11] was “at least 30 minutes” and the “peak concentration (plasma IP6)” value [5, 11] was 7.4 µM. The “time of peak concentration post-administration” value [5, 11] was 15 min, the “peak concentration (plasma IP6)” value [5, 12] was 1.8 µM and the “time of peak concentration post-administration” value [5, 12] was 5 min. The “induction time (time required for HAP to begin to crystallise)” value ([6]; 11.4 µM IP6, pH 7.4, control 8 minutes) was 28 min, the “effect of adding IP6 to simulated cinacalcet and sevelamer” value ([6]; IP6 0-11.4 µM with constant simulated concentration of cinacalcet or sevelamer) was “clear synergistic effect” and the “inhibition of the progression of heart calcification” value [7] was 100%. The “inhibition of the progression of renal calcification” value [7] was 95%, the “maximum adsorption of IP6 on the HAP surface” value ([8]; 25 mg HAP) was 6.42 mg and the EC50 ([8]; 25 mg HAP, non-linear regression) was 460 nM. For the same compound, the EC50 ([8]; 75 mg HAP, non-linear regression) was 960 nM, the EC50 ([8]; 130 mg HAP, non-linear regression) was 1220 nM and the “maximum adsorption of IP6 on the HAP surface” value ([8]; 300 mg HAP) was 4.8 mg. The EC50 ([8]; 300 mg HAP, non-linear regression) was 2090 nM, the “IP6 concentration at saturation of adsorption on HAP” value ([8]; 37°C, pH 7.4) was ≥ 7.6 µM and the “Emax for adsorption on HAP (saturation value)” value ([8]; non-linear regression) was 6.42 mg/g. For the same compound, the “dose above which mild tachycardia and prolonged QTc interval were observed” value (cardiovascular function; i.v. bolus) was “above 15 mg/kg”, the “dose above which tachycardia and QTc prolongation become significant” value (cardiovascular function; i.v. bolus) was “above 30 mg/kg” and the “effects on ECG parameters or ionic calcium concentrations” value (cardiovascular function; i.v. bolus 10 mg/kg) was “no significant effects”. The “decrease in ionic calcium” value (cardiovascular function; i.v. bolus, correlated with the prolonged QTc interval) was 30%, the concentration at 4 h ([9]; Wistar, rat, plasma, iv, uraemic rats, 10 mg/kg i.v. infusion over 4 h, read-out: plasma concentration after 4 hours) was 1200 nM and the peak plasma concentration ([9]; normal rats, 10 mg/kg i.v. infusion over 4 h) was 8.4 µM. For the same compound, the peak plasma concentration ([9]; normal rats, 50 mg/kg i.v. infusion over 4 h) was 68.4 µM, the peak concentration [9, 13] was 2.8 µM and the “time of peak concentration” value [9, 13] was 30 min. The peak plasma concentration [9, 14] was 24.6 µM, the “time of peak plasma concentration” value [9, 14] was 4 h and the “period with approximately constant concentration” value ([9]; uraemic rats, 50 mg/kg i.v. infusion, from hour 1 to hour 4) was 3 h.
